Entries after “also recorded” stand apart in the source; their conditions may differ. Where two headings read alike, the source gives them in different places. Marks after values point to notes of the source that are not given here.
Assays:
[1] = cited from earlier work
[2] = system: alpha-myosin heavy chain (alpha-MHC)
Method: FIG. 3A-3B. […] A: Representative agarose gel showing alpha-MHC hnRNA PCR products stained with ethidium bromide and visualized with ultraviolet light. PCR fragment size is 335 basepairs (bp). B: Quantification of hnRNA alpha-MHC 335 bp fragment from left ventricular RNA shown as a percentage of euthyroid (normal) values for three rats.
FIG. 4. […] Three 200 gram rats per each group.
FIG. 6. […] Hearts were removed after 3-4 days (24 hours after the last injection), and RNA was extracted from the left ventricles. Transcription was measured by quantitation of α-MHC hnRNA. The content of α-MHC hnRNA measured in these hearts is expressed as the percent of euthyroid (100%).
Methods and Materials—Animal Studies. Studies were conducted using adult Sprague-Dawley rats weighing between 180 and 225 g. Thyroidectomies were performed by surgical removal of the thyroid gland. […] After animals were sacrificed, the left ventricle of the heart was immediately frozen in liquid nitrogen and then treated for RNA extraction as previously described (Balkman et al. Endocrinology 130: 1002-6, 1992). Reverse transcription polymerase chain reaction (RT-PCR) assay of total left ventricular RNA for alpha-myosin heavy chain (alpha-MHC) heteronuclear (hn) RNA was carried out as previously described (Danzi and Klein, Thyroid 12(6): 467-72, 2002; Danzi et al. Am J Physiol Heart Circ Physiol. 284(6) :H2255-62, 2003). Results are expressed as means ±SE.
Expression of the cardiac- specific gene alpha-myosin heavy chain (alpha-MHC) is a sensitive indicator of normal cardiac function (Ojamaa et al. CVR&R 23: 20-6, 2002; Danzi et al. Am J Physiol Heart Circ Physiol. 284(6) :H2255-62, 2003; Danzi and Klein, Thyroid 12(6): 467-72, 2002; Ojamma and Klein, Endocrinology 132: 1002-6, 1993).

[3] = hypothyroid rats, T3 infusion 7.0 μg/d, 1 week; cited from earlier work
[4] = clinical; settings: human, in vivo, metabolic clearance rate (MCR) of T3
[5] = rats (Goslings et al.); cited from earlier work
[6] = Serum half-life of T3 after bolus injection in thyroidectomized rats; type: in vivo; settings: Sprague-Dawley, rat, intravenous, 1 ug
[7] = Serum T3, free T3 and T4 levels in hypothyroid (thyroidectomized) rats after T3 infusion or bolus injection (radioimmunoassay); type: in vivo, rat
Excerpt: FIG. 2. […] Three rats per each group.
Methods and Materials—Animal Studies. […] Results are expressed as means ±SE.

[8] = Heart rate after daily bolus administration of T3 in rats; type: in vivo, rat; settings: for T3max−Conmax: max HR T3 minus max HR saline control
[9] = daily bolus T3 0.8 μg/200 gram rat, day 1
[10] = daily bolus T3 0.8 μg/200 gram rat, day 2
[11] = daily bolus T3 0.8 μg/200 gram rat, day 3
[12] = daily bolus T3 0.8 μg/200 gram rat, day 4
[13] = daily bolus T3 0.8 μg/200 gram rat, day 5
[14] = day 6, no dosing of T3 on this day
[15] = day 7, no dosing of T3 on this day

In the case of `N[C@@H](Cc1cc(I)c(Oc2ccc(O)c(I)c2)c(I)c1)C(=O)O` [T3, triiodothyronine], the “metabolic clearance rate (MCR) of T3” value ([1]; humans (Chopra and Sabatino)) is listed as 24 L/day/70 kg, the “metabolic clearance rate (MCR) of T3” value ([1]; hypothyroid humans (Bianchi et al.)) is listed as 11.4 L/day/m^2 and the “alpha-MHC expression versus normal” value ([2]; hypothyroid rats, T3 infusion 0.25 and 0.5 μg/day) is listed as “normalization of alpha-MHC expression was observed”. For the same molecule, the “alpha-myosin HC expression versus normal” value ([2]; hypothyroid rats, bolus daily injections 0.25-0.8 μg T3/day) was “not by bolus daily injections”, the “alpha-myosin HC expression versus normal” value ([2]; hypothyroid rats, constant infusion 0.25-0.8 μg T3/day, 3-4 days) was “restored to normal” and the alpha-MHC cardiac transcription ([2]; thyroidectomized rats, bolus injection 1 μg T3 each day for 2 days) was 60 % of normal. For the same molecule, the “alpha-MHC expression (hnRNA)” value ([2]; thyroidectomized rats, single bolus injection of 1 μg T3, time course) was “transient increase in alpha-MHC expression”, the “Heart weight/Body weight” value [3] was 3.64 ± 0.07^a and the clearance [4] was roughly 0.217 mL/min/kg. The “metabolic clearance rate (MCR) of T3” value [5] was 2.93 mL/min/kg, the half-life [6] was 7 h and the concentration at 3 days ([7]; Sprague-Dawley, rat, serum, subcutaneous, 0.25 μg/d) was 0.44 ± 0.03 ng/mL. For the same molecule, the concentration at 3 days ([7]; Sprague-Dawley, rat, serum, subcutaneous, 0.8 μg/d) was 0.78 ± 0.06 ng/mL, the concentration at 1 week ([7]; Sprague-Dawley, rat, serum, subcutaneous, 1 μg/d) was 1.32 ± 0.14 ng/mL and the “serum T3 levels versus normal” value ([7]; hypothyroid rats, 0.8 μg daily bolus injection, 24 hours after last injection) was “not effective in restoring serum T3 levels to normal”. For the same molecule, the “serum T3 levels versus normal” value ([7]; hypothyroid rats, 0.8 μg/day by subcutaneous miniosmotic pump infusion, blood sampled at 72) was “restored to normal; also recorded: restores serum T3 levels to about normal”, the “serum T3 levels versus normal” value ([7]; hypothyroid rats, T3 infusion 0.25 μg/day and 0.5 μg/day) was “elevates serum T3 above levels observed in thyroidectomized animals, but does not fully restore serum T3 levels to normal” and the “serum T3 levels versus normal” value ([7]; hypothyroid rats, T3 infusion at doses above 0.8 μg/day) was “elevated serum T3 levels above normal”. For the same molecule, the “serum T3 levels versus normal” value ([7]; thyroidectomized rats, single bolus injection 1 μg T3/day for 7 days) was “failed to restore serum T3 levels to normal”, the “Δ HR” value ([8]; AVG of days 1-7) was 84 and the “min HR” value ([8]; AVG of days 1-7, P < 0.001 vs control) was 307^+. The “max HR” value ([8]; AVG of days 1-7, P < 0.002 vs control) was 390^, the “maximum heart rate versus normal” value ([8]; bolus daily injections of T3 at 0.8 μg) was “increasing maximum heart rate above normal” and the “max HR” value [8, 9] was 345. The “min HR” value [8, 9] was 270, the “Δ HR” value [8, 9] was 75 and the “max HR” value [8, 10] was 370. For the same molecule, the “min HR” value [8, 10] was 315, the “Δ HR” value [8, 10] was 55 and the “max HR” value [8, 11] was 385**. For the same molecule, the “min HR” value [8, 11] was 320, the “Δ HR” value [8, 11] was 65 and the “max HR” value [8, 12] was 410**. The “min HR” value [8, 12] was 320, the “Δ HR” value [8, 12] was 90 and the “max HR” value [8, 13] was 415**. The “min HR” value [8, 13] was 300, the “Δ HR” value [8, 13] was 115 and the “max HR” value [8, 14] was 425*. The “min HR” value [8, 14] was 300*, the “Δ HR” value [8, 14] was 125 and the “max HR” value [8, 15] was 380*. The “min HR” value [8, 15] was 325*, the “Δ HR” value [8, 15] was 65 and the “T3max−Conmax” value ([8]; AVG) was 43. For the same molecule, the “T3max−Conmax” value ([8]; day 1) was 0, the “T3max−Conmax” value ([8]; day 2) was 10 and the “T3max−Conmax” value ([8]; day 3) was 45. The “T3max−Conmax” value ([8]; day 4) was 70, the “T3max−Conmax” value ([8]; day 5) was 65 and the “T3max−Conmax” value ([8]; day 6 (no T3 dosing)) was 70. For the same molecule, the “T3max−Conmax” value ([8]; day 7 (no T3 dosing)) was 40.
